Earlier results, collected in patent US20260125371A1, “METHOD FOR INHIBITING CLOSTRIDIOIDES DIFFICILE SPORE GERMINATION” (UNIVERSITY OF NOTRE DAME DU LAC, priority 2022, published 2026).
Converted amounts (≈) assume the structure as drawn. Read-outs that look alike come from different tables or passages of the source.

How the values were obtained:
[1] = test system: S. pyogenes ATCC 49399; conditions: cited from earlier work
[2] = test system: B. licheniformis ATCC 12759; conditions: cited from earlier work
[3] = test system: C. difficile strains; conditions: cited from earlier work
[4] = test system: E. coli ATCC25922; conditions: cited from earlier work
[5] = test system: S. haemolyticus ATCC 29970; conditions: cited from earlier work
[6] = test system: P. aeruginosa ATCC27853; conditions: cited from earlier work
[7] = test system: E. faecium; conditions: cited from earlier work
[8] = test system: A. baumanii ATCC17961; conditions: cited from earlier work
[9] = test system: K. pneumoniae ATCC700603; conditions: cited from earlier work
[10] = test system: Gram-negative bacteria; conditions: organisms of Table 2; data from earlier publication; cited from earlier work
[11] = test system: E. aerogenes ATCC35029; conditions: cited from earlier work
[12] = test system: S. oralis ATCC 9811; conditions: cited from earlier work
[13] = C. difficile strains of Table 4

SMILES: FC(F)(F)c1ccc(Oc2ccc(-c3noc(-c4ccc5[nH]ccc5c4)n3)cc2)cc1 [Compound 1]
- MIC [1]: 64 µg/mL (≈ 152 µM)
- MIC [2]: 8 µg/mL (≈ 19 µM)
- IMIC50 (101 strains) ([3]; 101 C. difficile strains): 4 µg/mL
- MIC90 (101 strains) ([3]; 101 C. difficile strains): 8 µg/mL (≈ 19 µM)
- MIC ([3]; C. difficile 23828, resistant to FDX): 4 µg/mL (≈ 9.49 µM)
- MIC ([3]; C. difficile 24531, resistant to VAN): 4 µg/mL (≈ 9.49 µM)
- MIC ([3]; C. difficile 26675, resistant to MTZ): 4 µg/mL (≈ 9.49 µM)
- MIC ([3]; C. difficile BAA-1803): 2 µg/mL (≈ 4.75 µM)
- MIC ([3]; C. difficile BAA-1870): 4 µg/mL (≈ 9.49 µM)
- MIC ([3]; C. difficile NR49292): 2 µg/mL (≈ 4.75 µM)
- MIC ([3]; C. difficile NR49294): 1 µg/mL (≈ 2.37 µM)
- MIC ([3]; C. difficile NR49302): 2 µg/mL (≈ 4.75 µM)
- MIC ([3]; C. difficile NR49305): 4 µg/mL (≈ 9.49 µM)
- MIC ([3]; C. difficile NR49310): 2 µg/mL (≈ 4.75 µM)
- MIC ([3]; C. difficile NR49318): 2 µg/mL (≈ 4.75 µM)
- MIC50 [3, 13]: 4 µg/mL (≈ 9.49 µM)
- MIC90 [3, 13]: 8 µg/mL (≈ 19 µM)
- MIC ([3]; strain ATCC43598): 1 µg/mL (≈ 2.37 µM)
- MIC ([3]; strain BAA-1801): 4 µg/mL (≈ 9.49 µM)
- MIC ([3]; strain BAA-1803): 2 µg/mL (≈ 4.75 µM)
- MIC ([3]; strain BAA-1804): 2 µg/mL (≈ 4.75 µM)
- MIC ([3]; strain BAA-1812): 2 µg/mL (≈ 4.75 µM)
- MIC ([3]; strain BAA-1814): 4 µg/mL (≈ 9.49 µM)
- MIC ([3]; strain BAA-1870): 4 µg/mL (≈ 9.49 µM)
- MIC ([3]; strain HM-88): 8 µg/mL (≈ 19 µM)
- MIC ([3]; strain HM-89): 8 µg/mL (≈ 19 µM)
- MIC ([3]; strain HM-745): 8 µg/mL (≈ 19 µM)
- MIC ([3]; strain HM-746): 4 µg/mL (≈ 9.49 µM)
- MIC ([3]; strain HM-747): 8 µg/mL (≈ 19 µM)
- MIC ([3]; strain NR49292): 2 µg/mL (≈ 4.75 µM)
- MIC ([3]; strain NR49294): 1 µg/mL (≈ 2.37 µM)
- MIC ([3]; strain NR49302): 2 µg/mL (≈ 4.75 µM)
- MIC ([3]; strain NR49305): 4 µg/mL (≈ 9.49 µM)
- MIC ([3]; strain NR49310): 2 µg/mL (≈ 4.75 µM)
- MIC ([3]; strain NR49318): 2 µg/mL (≈ 4.75 µM)
- MIC ([3]; strain NR-13427): 4 µg/mL (≈ 9.49 µM)
- MIC ([3]; strain NR-13428): 8 µg/mL (≈ 19 µM)
- MIC ([3]; strain NR-13429): 8 µg/mL (≈ 19 µM)
- MIC ([3]; strain NR-13430): 8 µg/mL (≈ 19 µM)
- MIC ([3]; strain NR-13431): 4 µg/mL (≈ 9.49 µM)
- MIC ([3]; strain NR-13433): 4 µg/mL (≈ 9.49 µM)
- MIC ([3]; strain NR-13434): 4 µg/mL (≈ 9.49 µM)
- MIC ([3]; strain NR-13435): 4 µg/mL (≈ 9.49 µM)
- MIC ([3]; strain NR-13436): 8 µg/mL (≈ 19 µM)
- MIC ([3]; strain NR-13437): 8 µg/mL (≈ 19 µM)
- MIC ([3]; strain NR-13438): 4 µg/mL (≈ 9.49 µM)
- MIC ([3]; strain NR-13553): 4 µg/mL (≈ 9.49 µM)
- MIC ([3]; strain NR-32882): 4 µg/mL (≈ 9.49 µM)
- MIC ([3]; strain NR-32883): 4 µg/mL (≈ 9.49 µM)
- MIC ([3]; strain NR-32884): 4 µg/mL (≈ 9.49 µM)
- MIC ([3]; strain NR-32885): 8 µg/mL (≈ 19 µM)
- MIC ([3]; strain NR-32886): 4 µg/mL (≈ 9.49 µM)
- MIC ([3]; strain NR-32887): 8 µg/mL (≈ 19 µM)
- MIC ([3]; strain NR-32888): 8 µg/mL (≈ 19 µM)
- MIC ([3]; strain NR-32889): 4 µg/mL (≈ 9.49 µM)
- MIC ([3]; strain NR-32890): 4 µg/mL (≈ 9.49 µM)
- MIC ([3]; strain NR-32891): 8 µg/mL (≈ 19 µM)
- MIC ([3]; strain NR-32892): 4 µg/mL (≈ 9.49 µM)
- MIC ([3]; strain NR-32895): 2 µg/mL (≈ 4.75 µM)
- MIC ([3]; strain NR-32896): 2 µg/mL (≈ 4.75 µM)
- MIC ([3]; strain NR-32897): 8 µg/mL (≈ 19 µM)
- MIC ([3]; strain NR-32900): 8 µg/mL (≈ 19 µM)
- MIC ([3]; strain NR-32903): 8 µg/mL (≈ 19 µM)
- MIC ([3]; strain NR-32904): 4 µg/mL (≈ 9.49 µM)
- MIC ([3]; strain NR-49277): 4 µg/mL (≈ 9.49 µM)
- MIC ([3]; strain NR-49278): 4 µg/mL (≈ 9.49 µM)
- MIC ([3]; strain NR-49279): 4 µg/mL (≈ 9.49 µM)
- MIC ([3]; strain NR-49280): 8 µg/mL (≈ 19 µM)
- MIC ([3]; strain NR-49281): 4 µg/mL (≈ 9.49 µM)
- MIC ([3]; strain NR-49282): 8 µg/mL (≈ 19 µM)
- MIC ([3]; strain NR-49283): 8 µg/mL (≈ 19 µM)
- MIC ([3]; strain NR-49284): 8 µg/mL (≈ 19 µM)
- MIC ([3]; strain NR-49285): 4 µg/mL (≈ 9.49 µM)
- MIC ([3]; strain NR-49286): 4 µg/mL (≈ 9.49 µM)
- MIC ([3]; strain NR-49287): 4 µg/mL (≈ 9.49 µM)
- MIC ([3]; strain NR-49288): 4 µg/mL (≈ 9.49 µM)
- MIC ([3]; strain NR-49289): 8 µg/mL (≈ 19 µM)
- MIC ([3]; strain NR-49290): 8 µg/mL (≈ 19 µM)
- MIC ([3]; strain NR-49291): 8 µg/mL (≈ 19 µM)
- MIC ([3]; strain NR-49293): 4 µg/mL (≈ 9.49 µM)
- MIC ([3]; strain NR-49295): 4 µg/mL (≈ 9.49 µM)
- MIC ([3]; strain NR-49296): 4 µg/mL (≈ 9.49 µM)
- MIC ([3]; strain NR-49297): 4 µg/mL (≈ 9.49 µM)
- MIC ([3]; strain NR-49298): 4 µg/mL (≈ 9.49 µM)
- MIC ([3]; strain NR-49299): 4 µg/mL (≈ 9.49 µM)
- MIC ([3]; strain NR-49300): 4 µg/mL (≈ 9.49 µM)
- MIC ([3]; strain NR-49301): 4 µg/mL (≈ 9.49 µM)
- MIC ([3]; strain NR-49303): 4 µg/mL (≈ 9.49 µM)
- MIC ([3]; strain NR-49304): 4 µg/mL (≈ 9.49 µM)
- MIC ([3]; strain NR-49306): 4 µg/mL (≈ 9.49 µM)
- MIC ([3]; strain NR-49307): 4 µg/mL (≈ 9.49 µM)
- MIC ([3]; strain NR-49308): 8 µg/mL (≈ 19 µM)
- MIC ([3]; strain NR-49309): 4 µg/mL (≈ 9.49 µM)
- MIC ([3]; strain NR-49311): 4 µg/mL (≈ 9.49 µM)
- MIC ([3]; strain NR-49312): 8 µg/mL (≈ 19 µM)
- MIC ([3]; strain NR-49313): 4 µg/mL (≈ 9.49 µM)
- MIC ([3]; strain NR-49314): 4 µg/mL (≈ 9.49 µM)
- MIC ([3]; strain NR-49315): 4 µg/mL (≈ 9.49 µM)
- MIC ([3]; strain NR-49316): 4 µg/mL (≈ 9.49 µM)
- MIC ([3]; strain NR-49317): 8 µg/mL (≈ 19 µM)
- MIC ([3]; strain NR-49319): 8 µg/mL (≈ 19 µM)
- MIC ([3]; strain NR-49320): 4 µg/mL (≈ 9.49 µM)
- MIC ([3]; strain NR-49321): 8 µg/mL (≈ 19 µM)
- MIC ([3]; strain NR-49323): 8 µg/mL (≈ 19 µM)
- MIC ([3]; strain NR-49324): 8 µg/mL (≈ 19 µM)
- MIC ([3]; strain NR-49325): 8 µg/mL (≈ 19 µM)
- MIC ([3]; strain NR-49326): 4 µg/mL (≈ 9.49 µM)
- MIC ([3]; strain NR-49327): 4 µg/mL (≈ 9.49 µM)
- MIC ([3]; strain NR-49328): 4 µg/mL (≈ 9.49 µM)
- MIC ([3]; strain NR-49329): 4 µg/mL (≈ 9.49 µM)
- MIC ([3]; strain RMA23691): 4 µg/mL (≈ 9.49 µM)
- MIC ([3]; strain RMA23828): 4 µg/mL (≈ 9.49 µM)
- MIC ([3]; strain RMA24531): 4 µg/mL (≈ 9.49 µM)
- MIC ([3]; strain RMA24923): 4 µg/mL (≈ 9.49 µM)
- MIC ([3]; strain RMA26675): 4 µg/mL (≈ 9.49 µM)
- MIC ([3]; strain RMA27081): 2 µg/mL (≈ 4.75 µM)
- MIC ([3]; strain RMA27173): 4 µg/mL (≈ 9.49 µM)
- MIC [4]: >128 µg/mL
- MIC [5]: 8 µg/mL (≈ 19 µM)
- MIC [6]: >128 µg/mL
- MIC ([7]; E. faecium 106 (Van R)): 2 µg/mL (≈ 4.75 µM)
- MIC ([7]; E. faecium 119-39A (Van S)): 1 µg/mL (≈ 2.37 µM)
- MIC ([7]; E. faecium NCTC 7171): 2 µg/mL (≈ 4.75 µM)
- MIC [8]: >128 µg/mL
- MIC [9]: >128 µg/mL
- activity against Gram-negative organisms [10]: no activity
- MIC [11]: >128 µg/mL
- MIC [12]: 128 µg/mL (≈ 304 µM)
